In brackets after ≈: the same amount, converted by molar mass.
Columns and labels:
Type in all cases: cell-based
[1] = system: S. typhimurium invasion of human epithelial cell line (Henle 407); assay: Salmonella invasion assay; conditions: Henle 407 cells, triplicate
Method: The effect of T3SS inhibitor candidates on the ability of S. typhimurium to invade a cultured human epithelial cell line (Henle 407) was performed in a method similar to one previously described ([Chatterjee et al., 2011]). Henle 407 cells were grown in DMEM with 10% fetal calf serum at 37°C in 5% CO2 in 24-well plates. The plasmid pRK2-SipD with WT SipD was electroporated into the S. typhimurium SipD ^− strain and single colonies were inoculated into LB media supplemented with 25 mg/L trimethoprim, 50 mg/L ampicillin, 50 mg/L kanamycin and grown in standing cultures overnight. A 10 ml LB culture with 1 mM IPTG was inoculated with 1 ml of overnight bacterial growth, and incubated at 37°C on standing for 2.5–3 h. Approximately 15–30 uL of bacterial suspension was added with 300 uL DMEM into the Henle 407 cells and incubated at 37°C for 60 min to allow invasion before the suspension was removed by aspiration. The Henle 407 cells were incubated with fresh DMEM with 100 mg/L of gentamycin for 1.5 h, aspirated, rinsed with DMEM, and lysed with 1% Triton X-100 to free the entrapped bacteria. The number of bacterial colonies, which correlated with invasiveness, was estimated by serial dilution and plating. The Salmonella invasion assay was done in triplicate.

S. typhi = assay: In vitro anti-Salmonella bioassay (MIC); conditions: Salmonella enterica, 37°C 24 h, mean ± SD, three times
Method: (§1) The anti-Salmonella activities of these compounds were performed according to the previous reported protocol ([Wei et al., 2016]), using the minimum inhibitory concentration (MIC) with different strains, including S. enteritidis, S. typhi, S. typhimurium, S. paratyphi, S. and abortus equi. Gatifloxacin was used as positive controls. The test compounds 5, 19, and 32 in DMSO were prepared and then poured into 96-well plates. The final concentration of o.39–100 μg/ml underwent a twofold serial dilution. The bacteria were incubated with a series of different concentrations of compounds at 37°C for 24 h. The microbacterial growth was measured at the absorption of 630 nm. All experiments were carried out in triplicate.

S. enteritidis = assay: In vitro anti-Salmonella bioassay (MIC); conditions: Salmonella enterica, 37°C 24 h, mean ± SD, three times
Method: as §1

S. typhimurium = assay: In vitro anti-Salmonella bioassay (MIC); conditions: Salmonella enterica, 37°C 24 h, mean ± SD, three times
Method: as §1

S. abortus equi = assay: In vitro anti-Salmonella bioassay (MIC); conditions: Salmonella enterica, 37°C 24 h, mean ± SD, three times
Method: as §1

S. paratyphi = assay: In vitro anti-Salmonella bioassay (MIC); conditions: Salmonella enterica, 24 h
Method: as §1

[2] = system: S. typhimurium in RAW 264.7 cells; assay: Intracellular killing assay; conditions: 1 h, vs non-treated S. typhimurium group
Method: The intracellular killing experiment was performed according to the previous reported protocol ([Birhanu et al., 2018]). RAW 264.7 cells (10^5 cells/ml) were cultured in 24-well plates, and then treated with S. Typhimurium (10^7 CFU/ml) and further incubated for 45 min. After the cells were washed, the compound 5 (8 μg/ml), […] (19 μg/ml) and 32 (34 μg/ml) or gatifloxacin (3 μg/ml) were respectively added and incubated for 1 h at 37 °C. Finally, cells were treated with gentamicin (100 μg/ml) for 1 h and lysed with 0.1% of trition × 100 before being serially diluted and plated on LB agar. The cells infected with S. Typhimurium without treatment was used as the control.

[3] = In vitro cytotoxicity assay (MTT); conditions: mouse, RAW 264.7 cells, read-out: cell viability
Method: To study the cytotoxic effects of compounds on cell viability, the RAW 264.7 cells were seeded into 96-well plates at 1 ×10^4 cells/well and allowed to attach for 24 h. The medium was replaced with 100 μL medium containing the indicated concentrations of compounds and further incubated for 24 h. Each well was added 10 μL MTT (5 mg/ml in PBS) and the plates were incubated for 4 h at 37°C. Supernatants were aspirated and formed formazan was dissolved in 100 μL of dimethyl sulfoxide (DMSO). The optical density (OD) was measured at an absorbance wavelength of 490 nm using a Microplate Reader (Tecan, Switzerland).

O=C(O)c1ccc(Cn2nnc3sc4c(c3c2=O)CCCC4)cc1 [Compound 5]
effect on invasiveness [1]: most drastic effect on the invasiveness | MIC (S. typhi): 12.3 ± 2.1 mg/L (≈ 36 µM) | MIC (S. enteritidis): 31.6 ± 3.6 mg/L (≈ 92.6 µM) | MIC (S. typhimurium): 8 ± 2 mg/L (≈ 23.4 µM) | MIC (S. abortus equi): 5 ± 1 mg/L (≈ 14.6 µM) | MIC (S. paratyphi): 24.3 ± 3.5 mg/L (≈ 71.2 µM) | decrease of intracellular survival of S. typhimurium ([2]; 8 μg/ml): 44.4% | viability at 24 h, 8 μg/ml ([3]; 8 μg/ml): 84.2 ± 5.45%

Nc1c(-c2ccc(Cl)cc2)cnn1-c1ccc(C(=O)O)cc1 [Compound 32]
effect on invasiveness [1]: most drastic effect on the invasiveness | MIC (S. typhi): 44 ± 4.6 mg/L (≈ 140 µM) | MIC (S. enteritidis): 22 ± 3 mg/L (≈ 70.1 µM) | MIC (S. typhimurium): 34.3 ± 3.8 mg/L (≈ 109 µM) | MIC (S. abortus equi): 1.2 ± 0.3 mg/L (≈ 3.82 µM) | MIC (S. paratyphi): 22 ± 2.6 mg/L (≈ 70.1 µM) | decrease of intracellular survival of S. typhimurium ([2]; 34 μg/ml): 52.2% | viability at 24 h, 34 μg/ml ([3]; 34 μg/ml): 86.4 ± 6.04%

Nc1c(S(=O)(=O)O)ccc2c1C(=O)c1ccccc1C2=O [Compound 19]
effect on invasiveness [1]: most drastic effect on the invasiveness | MIC (S. typhi): 31.6 ± 5 mg/L (≈ 104 µM) | MIC (S. enteritidis): 53.3 ± 4.9 mg/L (≈ 176 µM) | MIC (S. typhimurium): 19.1 ± 3.1 mg/L (≈ 63 µM) | MIC (S. abortus equi): 3 ± 1 mg/L (≈ 9.89 µM) | MIC (S. paratyphi): 16.3 ± 3.1 mg/L (≈ 53.7 µM) | decrease of intracellular survival of S. typhimurium ([2]; 19 μg/ml): 32.5% | viability at 24 h, 19 μg/ml ([3]; 19 μg/ml): 91.5 ± 7.09%

COc1c(N2CCNC(C)C2)c(F)cc2c(=O)c(C(=O)O)cn(C3CC3)c12 (stereo not drawn) [Gatifloxacin, reference compound]
MIC (S. typhi): 9.7 ± 2.5 mg/L (≈ 25.8 µM) | MIC (S. enteritidis): 7.7 ± 1.5 mg/L (≈ 20.5 µM) | MIC (S. typhimurium): 3.3 ± 1.2 mg/L (≈ 8.79 µM) | MIC (S. abortus equi): 2 ± 1 mg/L (≈ 5.33 µM) | MIC (S. paratyphi): 3 ± 1.7 mg/L (≈ 7.99 µM) | intracellular survival suppression of S. typhimurium ([2]; 3 μg/ml): 60.2%
